In one data set the test system is CRC. The experiment in a line: Study 20170543 Phase 2 CRC cohort, sotorasib monotherapy. It counts as in vivo, human. From the text: A data snapshot was taken on Jun. 9, 2022.
A further data set concerns KRAS G12C mutated CRC. Kind of data set: Study 20190135 Subprotocol H, sotorasib + panitumumab: safety and tolerability (DLTs, TRAEs). From the text:
Accordingly, the primary endpoint will include an assessment of dose limiting toxicities, treatment-emergent and treatment-related adverse events.
The grading of AEs will be based on the guidelines provided in the CTCAE version 5.0. […] A Hy's Law case is defined as: AST or ALT values of ≥3×ULN AND with serum total bilirubin level (TBL) of >2×ULN without signs of cholestasis and with no other clear alternative reason to explain the observed liver related laboratory abnormalities.

Data set [1] is described as follows: Phase 1 study of sotorasib with omeprazole under fasted conditions. It counts as in vivo, human.
Data set [2] is described as follows: Phase 1 study of sotorasib with famotidine or omeprazole under fed conditions. In kind it is in vivo, human. Here is the method:
Safety and tolerability monitoring was performed throughout the study.

Data set [3] can be described thus: Phase 1 study of sotorasib with rifampin. It counts as in vivo, human.
Data set [4] concerns extracellular signal-regulated kinase (ERK). The settings on record: preclinical studies; cited from earlier work.
Data set [5] in a line: Study 20170543 (CodeBreaK 100): sotorasib monotherapy pharmacokinetics. The conditions noted are these: for AUC(0-t): AUC0-24h.
Data set [6] can be described thus: Study 20190135 Subprotocol H: sotorasib pharmacokinetics in combination with panitumumab.
The nature of data set [7]: Phase 1 study of digoxin with sotorasib. In kind it is in vivo, human. From the text:
PK parameters were estimated using non-compartmental methods. Safety and tolerability were monitored throughout the study.

The nature of data set [8]: Phase 1 study of midazolam with sotorasib. The settings on record: 2 mg midazolam with 960 mg sotorasib after 14 days of daily sotorasib vs midazolam alone; 5 subjects.
Where [9] appears, read: Aug. 6, 2021 data cut, 31 patients on the combination.
Setting [10] is: Jun. 24, 2022 data cut-off, 40 patients on the combination.
Setting [11] is: with omeprazole vs sotorasib alone, fasted state.
Where [12] appears, read: famotidine 10 hours prior to and 2 hours after a single dose of sotorasib.
Setting [13] is: repeat doses of omeprazole with a single dose of sotorasib.
[14] abbreviates: 960 mg sotorasib with single dose of 600 mg rifampin.
Setting [15] is: human, plasma, oral, day 1, monotherapy (CodeBreaK 100), comparison in Aug. 6, 2021 data cut.
Where [16] appears, read: Jun. 24, 2022 data cut-off, combination therapy with panitumumab (n=35).
[17] abbreviates: 0.5 mg digoxin coadministered with 960 mg sotorasib.
[18] abbreviates: with a single dose of sotorasib vs digoxin alone.

The structures appear in SMILES notation.

On to `C=CC(=O)N1CCN(c2nc(=O)n(-c3c(C)ccnc3C(C)C)c3nc(-c4c(O)cccc4F)c(F)cc23)[C@@H](C)C1` (atropisomer, axis not shown; (M)) [sotorasib, 6-fluoro-7-(2-fluoro-6-hydroxyphenyl)-(1M)-1-[4-methyl-2-(propan-2-yl)pyridin-3-yl]-4-[(2S)-2-methyl-4-(prop-2-enoyl)piperazin-1-yl]pyrido[2,3-d]pyrimidin-2(1H)-one], for which, in the data set on CRC, the response rate is on record as 10%. Moreover, the “TRAEs of any grade related to the named drug” value in the data set on KRAS G12C mutated CRC (Apr. 23, 2021 data cut, 8 patients on sotorasib 960 mg QD + panitumumab 6 mg/kg IV Q2W) is listed as 4 patients. For the same compound, in the data set with KRAS G12C mutated CRC (Apr. 23, 2021 data cut, 8 patients on the combination), the “TRAEs leading to dose modification of the named drug” value amounted to 1 patients. The entries for the “TRAEs of any grade related to the named drug, % of patients” value in the data set with KRAS G12C mutated CRC (setting [9]) and in the data set on KRAS G12C mutated CRC (setting [10]) were 45.2% and 65%, respectively. The “TRAEs of any grade related to the named drug, number of patients” value in the data set with KRAS G12C mutated CRC (setting [9]) is reported as 14 patients; in the data set on KRAS G12C mutated CRC (setting [10]), 26 patients. Further, the “TRAEs resulting in dose modification of the named drug, % of patients” value in the data set with KRAS G12C mutated CRC (setting [9]) was 9.7%; in the data set on KRAS G12C mutated CRC (setting [10]), 15%. Also, the “TRAEs resulting in dose modification of the named drug, number of patients” value was determined as 3 patients with KRAS G12C mutated CRC (setting [9]) and 6 patients with KRAS G12C mutated CRC (setting [10]). In data set [1] (960 mg sotorasib with 40 mg omeprazole vs alone, fasted), the “mean terminal half-life (t1/2) with omeprazole compared to sotorasib alone” value was “similar”. The safety and tolerability result was “safe and well tolerated” in [1] (coadministered with 40 mg omeprazole or alone, healthy subjects); “safe and well tolerated” in [2] (960 mg sotorasib with 40 mg famotidine or multiple daily 40 mg omeprazole, healthy subjects); “safe and well tolerated” in data set [3] (coadministered with 600 mg rifampin or alone, healthy subjects). In addition, the “decrease of sotorasib AUCinf” value was found to be 42% in [1] (setting [11]) and 51% in data set [3] (multiple doses of rifampin). The “decrease of sotorasib Cmax” value in [1] (setting [11]) is 57%; in data set [2] (setting [12]) it was 35%; in data set [2] (setting [13]), 65%; in data set [3] (multiple doses of rifampin), 35%. The “decrease of sotorasib AUC” value is given as 38% in data set [2] (setting [12]) and 57% in data set [2] (setting [13]). The “Geometric mean sotorasib AUCinf” value in data set [3] (960 mg sotorasib alone) amounted to 25600 ng·h/mL; in data set [3] (setting [14]), 19600 ng·h/mL. The “Geometric mean sotorasib Cmax” value in [3] (960 mg sotorasib alone) came to 6350 ng/mL; in data set [3] (960 mg sotorasib with multiple doses of 600 mg rifampin), 4110 ng/mL; in data set [3] (setting [14]), 5340 ng/mL. For the same compound, in data set [3] (inferred from multiple doses of rifampin), the CYP3A4 substrate status entry is on record as “is a CYP3A4 substrate”. The OATP1B1 substrate status result in data set [3] (inferred from single dose of rifampin) was “not a substrate of OATP1B1”. For the same compound, the “effect of single dose of rifampin on sotorasib PK” value in data set [3] (single dose of rifampin) is reported as “did not have a clinically meaningful effect”. For the same compound, the “phosphorylation of extracellular signal-regulated kinase (ERK)” value in data set [4] is given as “inhibited nearly all detectable phosphorylation”. The “tmax, median (range)” value is recorded as 0.75 (0.50-1.0) hr in data set [5] (180 mg, Day 8) and 2.0 (0.25-6.0) hr in [5] (960 mg, Day 1). Moreover, the “dose proportionality of exposure” value in [5] (180 to 960 mg PO QD, day 1 and day 8) was “less than dose-proportional”. The Tmax in [5] (after PO administration, 180 to 960 mg PO QD) is 1 to 2 h; in data set [5] (human, plasma, oral), 1.9 h; in [5] (human, plasma, oral, tmax, day 8, monotherapy (CodeBreaK 100), comparison in Aug. 6, 2021 data cut), 2 h; in data set [5] (human, plasma, oral, tmax, median (range), monotherapy (n=32, CodeBreaK 100), comparison in Jun. 24, 2022 data cut-off) it was 2 h. The AUC(0-t) in data set [5] (setting [15]) was 103000 ng·h/mL; in data set [5] (human, plasma, oral, mean (CV %), monotherapy (n=32, CodeBreaK 100), comparison in Jun. 24, 2022 data cut-off), 65300 ng·h/mL. Also, the highest concentration (Cmax) in [5] (setting [15]) was 9710 ng/mL; in [5] (human, plasma, oral, day 8, monotherapy (CodeBreaK 100), comparison in Aug. 6, 2021 data cut), 6500 ng/mL. Besides, the “accumulation with multiple dosing” value in data set [5] (multiple PO QD dosing for 8 days) is given as “no accumulation”. Also, in data set [6] (Aug. 6, 2021 data cut, day 1, combination therapy with panitumumab), the AUC0-24h came out at 77200 ng·h/mL. In addition, the “AUC0-24h, mean (CV %)” value in [6] (setting [16]) is recorded as 65.8 (56%) h*μg/mL. In addition, the “Cmax, mean (CV %)” value in data set [6] (setting [16]) is 9.64 (55%) μg/mL.
Regarding `C[C@H]1O[C@@H](O[C@H]2[C@@H](O)C[C@H](O[C@H]3[C@@H](O)C[C@H](O[C@H]4CC[C@@]5(C)[C@H](CC[C@@H]6[C@@H]5C[C@@H](O)[C@]5(C)[C@@H](C7=CC(=O)OC7)CC[C@]65O)C4)O[C@@H]3C)O[C@@H]2C)C[C@H](O)[C@@H]1O` [digoxin], in data set [7] (0.5 mg digoxin alone), the “Geometric mean digoxin AUCinf” value is 33.2 ng·h/mL and the “Geometric mean digoxin Cmax” value stood at 1.90 ng/mL. For the same compound, in data set [7] (setting [17]), the “Geometric mean digoxin AUCinf” value worked out at 40.3 ng·h/mL and the “Geometric mean digoxin Cmax” value came out at 3.64 ng/mL. Also, the “Digoxin median tmax and mean terminal half-life (t1/2) with sotorasib compared to digoxin alone” value in [7] (0.5 mg digoxin with 960 mg sotorasib vs alone) is on record as “similar”. Besides, the safety and tolerability entry in data set [7] (single doses of 0.5 mg digoxin alone or with 960 mg sotorasib) was “safe and well tolerated”. Further, in [7] (setting [18]), the “increase of digoxin AUCinf” value is on record as “approximately 21%” and the “increase of digoxin Cmax” value is on record as roughly 91%.
On to `Cc1ncc2n1-c1ccc(Cl)cc1C(c1ccccc1F)=NC2` [midazolam], for which, in data set [8], the “decrease of midazolam AUV” value was 53% and the “decrease of midazolam Cmax” value is 48%.

Usually Tmax stands for the time from dosing to the highest level. As a reminder, the AUC(0-t) is exposure summed from dosing to a finite time, without extrapolation to infinity. The low end stands for low exposure, the high end for high exposure. In general, Cmax refers to the peak of the concentration-time curve.

The values are drawn from US20250127782A1, “METHODS OF TREATING CANCER” (AMGEN INC., priority 2021, published 2025).
